Literature values in US20080009419A1, “GENETIC MODELS FOR STRATIFICATION OF CANCER RISK” (INTERGENETICS, INC., priority 2006, published 2008).
Read-outs that look alike come from different tables or passages of the source.

How the values were obtained:
[1] = for range of peak plasma concentration: single oral dose of 20 mg tamoxifen
estrogen receptors [2] = conditions: preclinical data
[3] = following chronic dosing
[4] = test system: incidence of breast cancer; conditions: large osteoporosis prevention and treatment study
[5] = test system: invasive breast cancer incidence; conditions: postmenopausal women at high risk, by mouth once a day
estrogen receptors [6] = conditions: animal test systems
[7] = test system: rat mammary carcinoma induced by dimethylbenzanthracene (DMBA); conditions: rats
[8] = 10 mg tamoxifen twice daily for 3 months, patients
[9] = 20 mg tamoxifen once daily for 3 months

Row | Compound | range of steady-state plasma concentration [1, 8] [ng/mL] | range of steady-state plasma concentration [1, 9] [ng/mL] | range of peak plasma concentration [1] [ng/mL] | reduction in invasive breast cancer incidence [5] [%] | other results
1 | CC/C(=C(\c1ccccc1)c1ccc(OCCNC)cc1)c1ccccc1 [N-desmethyl tamoxifen] | 148 to 654 | 152 to 706 | 10 to 20 |  | half-life suggested by time to steady state ([1]; human, in vivo): approximately 14 days
2 | O=C(c1ccc(OCCN2CCCCC2)cc1)c1c(-c2ccc(O)cc2)sc2cc(O)ccc12 [Raloxifene] |  |  |  | 50 | estrogen antagonism in uterine and breast tissues (estrogen receptors [2]): estrogen antagonist; clearance [3]: 40 to 60 L/kg per hour; incidence of breast cancer [4]: shown to reduce the incidence of breast cancer
3 | CC/C(=C(\c1ccccc1)c1ccc(OCCN(C)C)cc1)c1ccccc1.O=C(O)CC(O)(CC(=O)O)C(=O)O [Tamoxifen citrate, (Z)2-[4-(1,2-diphenyl-1-butenyl)phenoxy]-N,N-dimethylethanamine 2-hydroxy-1,2,3-propanetricarboxylate (1:1)] |  |  |  |  | antiestrogenic properties (estrogen receptors [6]): potent antiestrogenic properties
4 | CC/C(=C(\c1ccccc1)c1ccc(OCCN(C)C)cc1)c1ccccc1 [Tamoxifen] | 67 to 183 | 71 to 183 | 35 to 45 | 50 | DMBA-induced tumors in situ [7]: causes the regression; terminal elimination half-life ([1]; biphasic decline in plasma): 120 to 170 h
